According to patent US20250074943A1, “DLL3 BINDING PEPTIDES AND USES THEREOF” (AMGEN INC., priority 2021, published 2025):
Like-named read-outs stand apart in the source and are kept apart here. Bridge positions count the residues as written; N and C are the ends. Peptide text beside a SMILES is read from it.

Target: T1, recombinant DLL3 ectodomain (rhDLL3-Fc) (Homo sapiens, UniProt Q9NYJ7)
T1 construct: The recombinant DLL3 ectodomain (rhDLL3-Fc) was biotinylated; Fc
T1 sequence (Q9NYJ7 27-492 limits assumed): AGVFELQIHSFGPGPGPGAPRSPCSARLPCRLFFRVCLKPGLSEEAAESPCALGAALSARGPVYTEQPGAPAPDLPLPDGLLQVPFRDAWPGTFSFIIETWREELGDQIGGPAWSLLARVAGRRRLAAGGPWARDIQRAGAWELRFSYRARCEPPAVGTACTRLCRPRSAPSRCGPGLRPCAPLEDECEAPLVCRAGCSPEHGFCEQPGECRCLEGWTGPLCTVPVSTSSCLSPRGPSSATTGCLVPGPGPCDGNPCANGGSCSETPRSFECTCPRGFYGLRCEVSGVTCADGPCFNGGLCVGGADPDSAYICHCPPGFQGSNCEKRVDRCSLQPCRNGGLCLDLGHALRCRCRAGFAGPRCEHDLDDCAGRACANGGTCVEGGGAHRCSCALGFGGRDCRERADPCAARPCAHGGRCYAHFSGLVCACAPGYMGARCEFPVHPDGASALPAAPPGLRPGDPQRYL
Test: Binding kinetic assay using Bio-layer interferometry (BLI)
Settings: for binding mode to DLL3: peptides at 20, 4 and 0.8 μM, fit to 1:1 Langmuir binding model
Procedure: Binding kinetic assays were performed using Bio-layer interferometry (BLI) technology. The recombinant DLL3 ectodomain (rhDLL3-Fc) was biotinylated using EZ-Link Sulfo-NHS-LC-LC-Biotin Kit according to the manufacturer's protocol (Pierce by Thermo Fisher Scientific). The recombinant protein was incubated with an excess of NHS-LC-LC Biotin ester, in a molar ratio of 1:3 (protein: biotin), at 25° C. for 90 min. The un-reacted biotin ester was removed by subsequent buffer exchange on 0.5 ml Zeba spin desalting columns 7K MWCO (Pierce by Thermo Fisher Scientific).

[1] = Table 4, ± values from three independent experiments, read-out: RT (residence time) (converted)

| SMILES | Kd (Table 4, global fitting 1:1 Langmuir, koff vs kon ratio, ± values from three independent experiments) | residence time [1] | binding mode to DLL3 | residence time (range over the seven peptides, read-out: residence time) | affinity (wider dose-response 10×KD to 0.1×KD) |
| --- | --- | --- | --- | --- | --- |
| CC(C)[C@H](NC(=O)[C@@H](NC(=O)[C@H](CCC(=O)O)NC(=O)[C@H](C)N)[C@@H](C)O)C(=O)N[C@@H](CCC(=O)O)C(=O)N[C@@H](Cc1ccccc1)C(=O)N[C@@H](CC(=O)O)C(=O)NCC(=O)N[C@H]1CSSC[C@@H](C(=O)N[C@@H](Cc2c[nH]c3ccccc23)C(=O)N[C@@H](Cc2c[nH]c3ccccc23)C(N)=O)NC(=O)[C@H]([C@@H](C)O)NC(=O)[C@H](Cc2c[nH]c3ccccc23)NC(=O)[C@H](CCC(=O)O)NC(=O)[C@H](Cc2ccc(O)cc2)NC(=O)[C@H](Cc2c[nH]c3ccccc23)NC(=O)[C@H](CC(=O)O)NC(=O)CNC(=O)[C@H](CCCCN)NC1=O [PepSP1164] (H-AETVEFDGCKGDWYEWTCWW-NH2; disulfide 9-18) | 125 nM | 2.08 min | dose-response saturable binding |  |  |
| CC(C)[C@H](NC(=O)[C@@H]1CSSC[C@H](NC(=O)CNC(=O)[C@H](Cc2ccc(O)cc2)NC(=O)[C@H](Cc2ccccc2)NC(=O)[C@H](CCC(=O)O)NC(=O)[C@@H](NC(=O)[C@@H](NC(=O)[C@H](CCC(=O)O)NC(=O)[C@H](C)N)[C@@H](C)O)C(C)C)C(=O)N[C@@H](CCCNC(=N)N)C(=O)NCC(=O)NCC(=O)N[C@@H](CC(=O)O)C(=O)NCC(=O)N[C@@H](CCC(=O)O)C(=O)N[C@@H](Cc2c[nH]c3ccccc23)C(=O)N[C@@H]([C@@H](C)O)C(=O)N1)C(=O)N[C@@H](Cc1c[nH]c2ccccc12)C(N)=O [PepSP1165] (H-AETVEFYGCRGGDGEWTCVW-NH2; disulfide 9-18; N-terminus assumed) |  | 1.1 min | dose-response saturable binding |  |  |
| CC(C)[C@H](NC(=O)[C@@H]1CSSC[C@H](NC(=O)[C@H](Cc2ccc(O)cc2)NC(=O)[C@H](CC(=O)O)NC(=O)[C@H](Cc2ccccc2)NC(=O)[C@H](CCC(=O)O)NC(=O)[C@@H](NC(=O)[C@@H](NC(=O)[C@H](CCC(=O)O)NC(=O)[C@H](C)N)[C@@H](C)O)C(C)C)C(=O)N[C@@H](Cc2ccc(O)cc2)C(=O)NCC(=O)N[C@@H](CC(=O)O)C(=O)N[C@@H](C(C)C)C(=O)N[C@@H](CCC(=O)O)C(=O)N[C@@H](CCC(=O)O)C(=O)N[C@@H](Cc2c[nH]c3ccccc23)C(=O)N[C@@H]([C@@H](C)O)C(=O)N1)C(=O)N[C@@H](Cc1ccc(O)cc1)C(N)=O [PepSP1166] (H-AETVEFDYCYGDVEEWTCVY-NH2; disulfide 9-18; N-terminus assumed) |  | 0.8 min | dose-response saturable binding |  |  |
| CC(C)C[C@H](NC(=O)[C@@H]1CSSC[C@H](NC(=O)CNC(=O)[C@H](Cc2ccc(O)cc2)NC(=O)[C@H](Cc2ccccc2)NC(=O)[C@H](CCC(=O)O)NC(=O)[C@@H](NC(=O)[C@@H](NC(=O)[C@H](CCC(=O)O)NC(=O)[C@H](C)N)[C@@H](C)O)C(C)C)C(=O)N[C@@H](CCC(=O)O)C(=O)N[C@@H]([C@@H](C)O)C(=O)N[C@@H](Cc2ccc(O)cc2)C(=O)N[C@@H](CO)C(=O)NCC(=O)NCC(=O)N[C@@H](Cc2c[nH]c3ccccc23)C(=O)N[C@@H]([C@@H](C)O)C(=O)N1)C(=O)N[C@@H](Cc1c[nH]c2ccccc12)C(N)=O [PepSP1167] (H-AETVEFYGCETYSGGWTCLW-NH2; disulfide 9-18) |  | 0.783 min | dose-response saturable binding |  |  |
| CC(C)[C@H](NC(=O)[C@@H](NC(=O)[C@H](CCC(=O)O)NC(=O)[C@H](C)N)[C@@H](C)O)C(=O)N[C@@H](CCC(=O)O)C(=O)N[C@@H](Cc1ccccc1)C(=O)N[C@@H](Cc1ccc(O)cc1)C(=O)NCC(=O)N[C@H]1CSSC[C@@H](C(=O)N[C@@H](C)C(=O)N[C@@H](Cc2c[nH]c3ccccc23)C(N)=O)NC(=O)[C@H]([C@@H](C)O)NC(=O)[C@H](Cc2c[nH]c3ccccc23)NC(=O)CNC(=O)[C@H](CCCCN)NC(=O)[C@H](Cc2c[nH]c3ccccc23)NC(=O)[C@H](CC(=O)O)NC(=O)[C@H](Cc2c[nH]c3ccccc23)NC(=O)[C@H](CCCCN)NC1=O [PepSP1168] (H-AETVEFYGCKWDWKGWTCAW-NH2; disulfide 9-18; N-terminus assumed) |  | 0.733 min | dose-response saturable binding |  |  |

Second part, the molecule after the results:

| Kd (Table 4, global fitting 1:1 Langmuir, koff vs kon ratio, ± values from three independent experiments) | residence time [1] | binding mode to DLL3 | residence time (range over the seven peptides, read-out: residence time) | affinity (wider dose-response 10×KD to 0.1×KD) | SMILES |
| --- | --- | --- | --- | --- | --- |
|  | 0.717 min | dose-response saturable binding |  |  | CC(C)[C@@H]1NC(=O)[C@H](CO)NC(=O)[C@@H](NC(=O)CNC(=O)[C@H](Cc2ccc(O)cc2)NC(=O)[C@H](Cc2ccccc2)NC(=O)[C@H](CCC(=O)O)NC(=O)[C@@H](NC(=O)[C@@H](NC(=O)[C@H](CCC(=O)O)NC(=O)[C@H](C)N)[C@@H](C)O)C(C)C)CSSC[C@@H](C(=O)N[C@@H](CO)C(=O)N[C@@H](Cc2c[nH]c3ccccc23)C(N)=O)NC(=O)[C@H]([C@@H](C)O)NC(=O)[C@H](Cc2c[nH]c3ccccc23)NC(=O)CNC(=O)[C@H](CC(=O)O)NC(=O)[C@H](C)NC(=O)[C@H](CC(N)=O)NC1=O [PepSP1170] (H-AETVEFYGCSVNADGWTCSW-NH2; disulfide 9-18) |
|  | 1.68 min | dose-response saturable binding |  |  | CC(C)C[C@H](NC(=O)[C@@H]1CSSC[C@H](NC(=O)CNC(=O)[C@H](Cc2ccc(O)cc2)NC(=O)[C@H](Cc2ccccc2)NC(=O)[C@H](CCC(=O)O)NC(=O)[C@@H](NC(=O)[C@@H](NC(=O)[C@H](CCC(=O)O)NC(=O)[C@H](C)N)[C@@H](C)O)C(C)C)C(=O)N[C@@H](Cc2ccc(O)cc2)C(=O)NCC(=O)N[C@@H](CCC(=O)O)C(=O)N[C@@H](CCC(N)=O)C(=O)N[C@@H](CCC(=O)O)C(=O)N[C@@H](CCC(N)=O)C(=O)N[C@@H](Cc2c[nH]c3ccccc23)C(=O)N[C@@H]([C@@H](C)O)C(=O)N1)C(=O)N[C@@H](Cc1c[nH]c2ccccc12)C(N)=O [PepSP1173] (H-AETVEFYGCYGEQEQWTCLW-NH2; disulfide 9-18) |
|  | 1.12 min | dose-response saturable binding |  |  | CC(C)[C@H](NC(=O)[C@@H](NC(=O)[C@H](CCC(=O)O)NC(=O)[C@H](C)N)[C@@H](C)O)C(=O)N[C@@H](CCC(=O)O)C(=O)N[C@@H](Cc1ccccc1)C(=O)N[C@@H](Cc1ccc(O)cc1)C(=O)NCC(=O)N[C@H]1CSSC[C@@H](C(=O)N[C@@H](C)C(=O)N[C@@H](Cc2c[nH]c3ccccc23)C(N)=O)NC(=O)[C@H]([C@@H](C)O)NC(=O)[C@H](Cc2ccc(O)cc2)NC(=O)[C@H](CC(=O)O)NC(=O)[C@H](Cc2c[nH]c3ccccc23)NC(=O)CNC(=O)[C@H](Cc2ccc(O)cc2)NC(=O)[C@H](Cc2ccc(O)cc2)NC(=O)[C@H](CCC(N)=O)NC1=O [PepSP1176] (H-AETVEFYGCQYYGWDYTCAW-NH2; disulfide 9-18) |
|  | 0.867 min | dose-response saturable binding |  |  | CC(C)[C@H](NC(=O)[C@@H](NC(=O)[C@H](CCC(=O)O)NC(=O)[C@H](C)N)[C@@H](C)O)C(=O)N[C@@H](CCC(=O)O)C(=O)N[C@@H](Cc1ccccc1)C(=O)N[C@@H](Cc1ccc(O)cc1)C(=O)NCC(=O)N[C@H]1CSSC[C@@H](C(=O)N[C@@H](CO)C(=O)N[C@@H](Cc2c[nH]c3ccccc23)C(N)=O)NC(=O)[C@H]([C@@H](C)O)NC(=O)[C@H](Cc2ccc(O)cc2)NC(=O)[C@H](CC(=O)O)NC(=O)[C@H](CC(N)=O)NC(=O)[C@H](Cc2ccc(O)cc2)NC(=O)[C@H](CC(N)=O)NC(=O)CNC(=O)[C@H](Cc2c[nH]c3ccccc23)NC1=O [PepSP1177] (H-AETVEFYGCWGNYNDYTCSW-NH2; disulfide 9-18; N-terminus assumed) |
|  | 1.27 min | dose-response saturable binding | 1 to 3 min | double-digit nM range | CC(C)[C@H](NC(=O)[C@@H](NC(=O)[C@H](CCC(=O)O)NC(=O)[C@H](C)N)[C@@H](C)O)C(=O)N[C@@H](CCC(=O)O)C(=O)N[C@@H](Cc1ccccc1)C(=O)N[C@@H](Cc1ccc(O)cc1)C(=O)NCC(=O)N[C@H]1CSSC[C@@H](C(=O)N[C@H](C(=O)N[C@@H](Cc2c[nH]c3ccccc23)C(N)=O)[C@@H](C)O)NC(=O)[C@H]([C@@H](C)O)NC(=O)[C@H](Cc2ccc(O)cc2)NC(=O)[C@H](CC(=O)O)NC(=O)[C@H](CC(N)=O)NC(=O)[C@H](CCCNC(=N)N)NC(=O)[C@H](CC(=O)O)NC(=O)CNC(=O)[C@H](Cc2ccc(O)cc2)NC1=O [PepSP1178] (H-AETVEFYGCYGDRNDYTCTW-NH2; disulfide 9-18; N-terminus assumed) |
